Measurements from US9346809B2 (LEO PHARMA A/S, priority 2009, dated 2016).
Where two headings read alike, the source gives them in different places.

How the values were obtained:
Format in all cases: biochemical
[1] = molecular target: T1, TYK2 (aa 871-1187, catalytic domain, GST-tag) (Homo sapiens, UniProt P29597); experiment: JAK kinase assay (HTRF, phosphorylation of TK substrate-biotin), TYK2; conditions: ATP at Km (13 μM)
T1 construct: JAK1 (aa 850-1154) and TYK2 (aa 871-1187) are expressed with an N-terminally fused GST-tag; GST (N); purchased Carna Biosciences, Inc; host or cells: baculovirus expression system
T1 sequence (P29597 871-1187): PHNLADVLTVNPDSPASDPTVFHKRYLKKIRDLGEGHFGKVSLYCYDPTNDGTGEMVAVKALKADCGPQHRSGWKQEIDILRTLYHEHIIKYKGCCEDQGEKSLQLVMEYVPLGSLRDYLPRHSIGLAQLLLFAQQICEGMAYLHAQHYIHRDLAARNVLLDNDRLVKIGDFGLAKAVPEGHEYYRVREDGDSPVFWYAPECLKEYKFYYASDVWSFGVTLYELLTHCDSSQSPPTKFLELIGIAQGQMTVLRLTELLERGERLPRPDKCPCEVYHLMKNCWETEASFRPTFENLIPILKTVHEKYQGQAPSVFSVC
Outline: (§1)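 EC50 values come from HTRF detection of phospho-biotin-TK peptide (1 μM) after 20-30 min RT reactions in Hepes pH 7.0 buffer with 0.75% DMSO. ATP was at Km for each enzyme: 7 μM JAK1, 4 μM JAK2, 2 μM JAK3, 13 μM TYK2. SEB (50 nM) was added for JAK1 and TYK2 only.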

[2] = molecular target: T2, JAK3 (catalytic domain, His-tag) (Homo sapiens, UniProt P52333); experiment: JAK kinase assay (HTRF, phosphorylation of TK substrate-biotin), JAK3; conditions: ATP at Km (2 μM)
T2 construct: All four purified enzymes contain only the catalytic domain; His (N); purchased Carna Biosciences, Inc; host or cells: baculovirus expression system
Outline: as §1

[3] = molecular target: T3, JAK1 (aa 850-1154, catalytic domain, GST-tag) (Homo sapiens, UniProt P23458); experiment: JAK kinase assay (HTRF, phosphorylation of TK substrate-biotin), JAK1; conditions: ATP at Km (7 μM)
T3 construct: JAK1 (aa 850-1154) and TYK2 (aa 871-1187) are expressed with an N-terminally fused GST-tag; GST (N); purchased Carna Biosciences, Inc; host or cells: baculovirus expression system
Outline: as §1

[4] = molecular target: T4, JAK2 (catalytic domain, His-tag) (Homo sapiens, UniProt O60674); experiment: JAK kinase assay (HTRF, phosphorylation of TK substrate-biotin), JAK2; conditions: ATP at Km (4 μM)
T4 construct: All four purified enzymes contain only the catalytic domain; His (N); purchased Carna Biosciences, Inc; host or cells: baculovirus expression system
Outline: as §1

[5] = read-out: TYK2 kinase inhibitory activity (EC50 indicator)
[6] = read-out: JAK3 kinase inhibitory activity (EC50 indicator)
[7] = read-out: JAK1 kinase inhibitory activity (EC50 indicator)
[8] = read-out: JAK2 kinase inhibitory activity (EC50 indicator)
[9] = HTRF assay, read-out: TYK2 kinase inhibitory activity (EC50 indicator)
[10] = HTRF assay, read-out: JAK3 kinase inhibitory activity (EC50 indicator)
[11] = HTRF assay, read-out: JAK1 kinase inhibitory activity (EC50 indicator)
[12] = HTRF assay, read-out: JAK2 kinase inhibitory activity (EC50 indicator)

T4 sequence (O60674 849-1124 limits assumed): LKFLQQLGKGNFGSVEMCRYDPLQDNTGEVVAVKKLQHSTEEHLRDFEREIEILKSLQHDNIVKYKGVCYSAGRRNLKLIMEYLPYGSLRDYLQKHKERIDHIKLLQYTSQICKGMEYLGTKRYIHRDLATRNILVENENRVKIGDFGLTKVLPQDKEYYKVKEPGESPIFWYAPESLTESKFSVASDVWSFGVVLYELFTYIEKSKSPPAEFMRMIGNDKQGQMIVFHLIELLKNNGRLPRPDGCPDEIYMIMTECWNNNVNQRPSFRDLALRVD
T3 sequence (P23458 850-1154): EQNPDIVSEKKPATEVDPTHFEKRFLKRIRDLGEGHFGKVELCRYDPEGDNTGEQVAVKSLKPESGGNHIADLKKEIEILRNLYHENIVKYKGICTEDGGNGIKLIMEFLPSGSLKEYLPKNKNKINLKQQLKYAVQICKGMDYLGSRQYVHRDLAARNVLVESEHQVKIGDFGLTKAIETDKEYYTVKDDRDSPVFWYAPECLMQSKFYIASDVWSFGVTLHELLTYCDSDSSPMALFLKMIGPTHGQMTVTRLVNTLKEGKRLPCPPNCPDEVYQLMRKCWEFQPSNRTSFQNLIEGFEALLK
T2 sequence (P52333 822-1111 limits assumed): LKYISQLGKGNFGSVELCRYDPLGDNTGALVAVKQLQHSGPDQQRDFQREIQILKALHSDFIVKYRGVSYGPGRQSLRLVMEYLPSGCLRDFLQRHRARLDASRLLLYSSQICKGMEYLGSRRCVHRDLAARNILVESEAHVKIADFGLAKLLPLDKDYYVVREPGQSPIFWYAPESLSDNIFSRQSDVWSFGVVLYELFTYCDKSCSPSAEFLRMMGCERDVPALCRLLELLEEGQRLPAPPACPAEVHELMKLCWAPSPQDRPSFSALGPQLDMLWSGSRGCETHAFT

## N#Cc1cccc(C(=O)N2[C@@H]3CC[C@@H]2CN(c2ncnc4[nH]ccc24)C3)c1 [Example 173, 3-[3-(7H-Pyrrolo[2,3-d]pyrimidin-4-yl)-3,8-diaza-bicyclo[3.2.1]octane-8-carbonyl]-benzonitrile]
[1]; [5]
  EC50: 100 to 500 nM
[2]; [6]
  EC50: < 100 nM
[3]; [7]
  EC50: < 100 nM
[4]; [8]
  EC50: < 100 nM

## O=C(c1cc2ccccc2s1)N1CCN(c2ncnc3[nH]ccc23)CC12CC2 [Example 26, Benzo[b]thiophen-2-yl-[7-(7H-pyrrolo[2,3-d]pyrimidin-4-yl)-4,7-diazaspiro[2.5]oct-4-yl]methanone]
[1]; [5]
  EC50: 100 to 500 nM
[2]; [6]
  EC50: 100 to 500 nM
[3]; [7]
  EC50: < 100 nM
[4]; [8]
  EC50: < 100 nM

## CCC(=O)N1[C@@H]2CC[C@H]1CN(c1ncnc3[nH]ccc13)C2 [Example 30, 1-[3-(7H-Pyrrolo[2,3-d]pyrimidin-4-yl)-3,8-diazabicyclo[3.2.1]oct-8-yl]propan-1-one]
[1]; [5]
  EC50: > 500 nM
[2]; [6]
  EC50: > 500 nM
[3]; [7]
  EC50: 100 to 500 nM
[4]; [8]
  EC50: 100 to 500 nM

## O=C(c1cc2ccc(F)cc2[nH]1)N1CCN(c2ncnc3[nH]ccc23)CC12CC2 [Example 363, (6-Fluoro-1H-indol-2-yl)-[7-(7H-pyrrolo[2,3-d]pyrimidin-4-yl)-4,7-diaza-spiro[2.5]oct-4-yl]-methanone]
[1]; [9]
  EC50: 100 to 500 nM
[2]; [10]
  EC50: < 100 nM
[3]; [11]
  EC50: < 100 nM
[4]; [12]
  EC50: < 100 nM

## CCCNS(=O)(=O)c1ccc(C(=O)N2CCN(c3ncnc4[nH]ccc34)CC23CC3)cc1 [Example 377, N-Propyl-4-[7-(7H-pyrrolo[2,3-d]pyrimidin-4-yl)-4,7-diaza-spiro[2.5]octane-4-carbonyl]-benzenesulfonamide]
[1]; [9]
  EC50: 100 to 500 nM
[2]; [10]
  EC50: < 100 nM
[3]; [11]
  EC50: < 100 nM
[4]; [12]
  EC50: < 100 nM

## Cc1ccc2sc(C(=O)N3CCN(c4ncnc5[nH]ccc45)CC34CC4)cc2c1 [Example 297, (5-Methyl-benzo[b]thiophen-2-yl)-[7-(7H-pyrrolo[2,3-d]pyrimidin-4-yl)-4,7-diaza-spiro[2.5]oct-4-yl]-methanone]
[1]; [9]
  EC50: 100 to 500 nM
[2]; [10]
  EC50: 100 to 500 nM
[3]; [11]
  EC50: < 100 nM
[4]; [12]
  EC50: < 100 nM

## O=C(c1ccc(OC(F)(F)F)cc1)N1[C@@H]2CC[C@@H]1CN(c1ncnc3[nH]ccc13)C2 [Example 251, [3-(7H-Pyrrolo[2,3-d]pyrimidin-4-yl)-3,8-diaza-bicyclo[3.2.1]oct-8-yl]-(4-trifluoromethoxy-phenyl)-methanone]
[1]; [9]
  EC50: > 500 nM
[2]; [10]
  EC50: 100 to 500 nM
[3]; [11]
  EC50: < 100 nM
[4]; [12]
  EC50: 100 to 500 nM

## Cc1c(C(=O)N2CCN(c3ncnc4[nH]ccc34)CC23CC3)sc2ccccc12 [Example 296, (3-Methyl-benzo[b]thiophen-2-yl)-[7-(7H-pyrrolo[2,3-d]pyrimidin-4-yl)-4,7-diaza-spiro[2.5]oct-4-yl]-methanone]
[1]; [9]
  EC50: < 100 nM
[2]; [10]
  EC50: 100 to 500 nM
[3]; [11]
  EC50: < 100 nM
[4]; [12]
  EC50: < 100 nM

## N#Cc1ccc(C(=O)N2[C@@H]3CC[C@H]2CN(c2ncnc4[nH]ccc24)C3)cc1 [Example 31, 4-[3-(7H-Pyrrolo[2,3-d]pyrimidin-4-yl)-3,8-diazabicyclo[3.2.1]octane-8-carbonyl]benzonitrile]
[1]; [5]
  EC50: > 500 nM
[2]; [6]
  EC50: 100 to 500 nM
[3]; [7]
  EC50: < 100 nM
[4]; [8]
  EC50: < 100 nM

## Cc1c[nH]c2ncnc(N3CCN(C(=O)Cc4ccc(C(F)(F)F)cc4)C4(CC4)C3)c12 [Example 331, 1-[7-(5-Methyl-7H-pyrrolo[2,3-d]pyrimidin-4-yl)-4,7-diaza-spiro[2.5]oct-4-yl]-2-(4-trifluoromethyl-phenyl)-ethanone]
[1]; [9]
  EC50: > 500 nM
[2]; [10]
  EC50: < 100 nM
[3]; [11]
  EC50: 100 to 500 nM
[4]; [12]
  EC50: 100 to 500 nM

## O=C(c1ccccc1)N1CCN(c2ncnc3[nH]ccc23)CC12CC2 [Example 27, Phenyl-[7-(7H-pyrrolo[2,3-d]pyrimidin-4-yl)-4,7-diazaspiro[2.5]oct-4-yl]methanone]
[1]; [5]
  EC50: 100 to 500 nM
[2]; [6]
  EC50: 100 to 500 nM
[3]; [7]
  EC50: < 100 nM
[4]; [8]
  EC50: < 100 nM

## C#CCOC(=O)N1[C@@H]2CC[C@H]1CN(c1ncnc3[nH]ccc13)C2 [Example 59, 3-(7H-Pyrrolo[2,3-d]pyrimidin-4-yl)-3,8-diazabicyclo[3.2.1]octane-8-carboxylic acid prop-2-ynyl ester]
[1]; [5]
  EC50: > 500 nM
[2]; [6]
  EC50: 100 to 500 nM
[3]; [7]
  EC50: 100 to 500 nM
[4]; [8]
  EC50: 100 to 500 nM

## O=C(C1CCc2ccccc21)N1CCN(c2ncnc3[nH]ccc23)CC12CC2 (centres unmarked) [Example 413, Indan-1-yl-[7-(7H-pyrrolo[2,3-d]pyrimidin-4-yl)-4,7-diaza-spiro[2.5]oct-4-yl]-methanone]
[1]; [9]
  EC50: > 500 nM
[2]; [10]
  EC50: 100 to 500 nM
[3]; [11]
  EC50: 100 to 500 nM
[4]; [12]
  EC50: < 100 nM

## O=C(NC1CCCCC1)N1CCN(c2ncnc3[nH]ccc23)CC12CC2 [Example 436, 7-(7H-Pyrrolo[2,3-d]pyrimidin-4-yl)-4,7-diaza-spiro[2.5]octane-4-carboxylic acid cyclohexylamide]
[1]; HTRF assay, read-out: TYK2 kinase inhibitory activity (EC50)
  EC50: 100 to 500 nM
[2]; HTRF assay, read-out: JAK3 kinase inhibitory activity (EC50)
  EC50: < 100 nM
[3]; HTRF assay, read-out: JAK1 kinase inhibitory activity (EC50)
  EC50: < 100 nM
[4]; HTRF assay, read-out: JAK2 kinase inhibitory activity (EC50)
  EC50: < 100 nM

## O=C([C@@H]1CCCc2ccccc21)N1CCN(c2ncnc3[nH]ccc23)CC12CC2 [Example 415, [7-(7H-Pyrrolo[2,3-d]pyrimidin-4-yl)-4,7-diaza-spiro[2.5]oct-4-yl]-(1,2,3,4-tetrahydro-naphthalen-1-yl)-methanone]
[1]; [9]
  EC50: > 500 nM
[2]; [10]
  EC50: > 500 nM
[3]; [11]
  EC50: 100 to 500 nM
[4]; [12]
  EC50: 100 to 500 nM

## N#Cc1ccccc1C(=O)N1CCN(c2ccnc3[nH]ccc23)CC12CC2 [Example 235, 2-[7-(1H-Pyrrolo[2,3-b]pyridin-4-yl)-4,7-diaza-spiro[2.5]octane-4-carbonyl]-benzonitrile]
[1]; [9]
  EC50: > 500 nM
[2]; [10]
  EC50: > 500 nM
[3]; [11]
  EC50: 100 to 500 nM
[4]; [12]
  EC50: < 100 nM

## Cc1ccsc1C(=O)N1CCN(c2ncnc3[nH]ccc23)CC12CC2 [Example 90, (3-Methyl-thiophen-2-yl)[7-(7H-pyrrolo[2,3-d]pyrimidin-4-yl)-4,7-diaza-spiro[2.5]oct-4-yl]-methanone]
[1]; [5]
  EC50: 100 to 500 nM
[2]; [6]
  EC50: 100 to 500 nM
[3]; [7]
  EC50: < 100 nM
[4]; [8]
  EC50: < 100 nM

## O=C(c1cnc2ccccc2n1)N1CCN(c2ncnc3[nH]cc(Cl)c23)CC12CC2 [Example 317, [7-(5-Chloro-7H-pyrrolo[2,3-d]pyrimidin-4-yl)-4,7-diaza-spiro[2.5]oct-4-yl]-quinoxalin-2-yl-methanone]
[1]; [9]
  EC50: > 500 nM
[2]; [10]
  EC50: > 500 nM
[3]; [11]
  EC50: > 500 nM
[4]; [12]
  EC50: 100 to 500 nM

## Cc1ccsc1C(=O)N1CCN(c2ccnc3[nH]ccc23)CC12CC2 [Example 228, (3-Methyl-thiophen-2-yl)-[7-(1H-pyrrolo[2,3-b]pyridin-4-yl)-4,7-diaza-spiro[2.5]oct-4-yl]-methanone]
[1]; [9]
  EC50: > 500 nM
[2]; [10]
  EC50: > 500 nM
[3]; [11]
  EC50: 100 to 500 nM
[4]; [12]
  EC50: < 100 nM

## Cc1nc2ccccc2nc1C(=O)N1CCN(c2ncnc3[nH]ccc23)CC12CC2 [Example 419, (3-Methyl-quinoxalin-2-yl)-[7-(7H-pyrrolo[2,3-d]pyrimidin-4-yl)-4,7-diaza-spiro[2.5]oct-4-yl]-methanone]
[1]; [9]
  EC50: < 100 nM
[2]; [10]
  EC50: < 100 nM
[3]; [11]
  EC50: < 100 nM
[4]; [12]
  EC50: < 100 nM

## O=C(c1ccc(C(F)(F)F)cc1)N1CCN(c2ncnc3[nH]ccc23)CC12CC2 [Example 48, [7-(7H-Pyrrolo[2,3-d]pyrimidin-4-yl)-4,7-diaza-spiro[2.5]oct-4-yl]-(4-trifluoromethylphenyl)methanone]
[1]; [5]
  EC50: > 500 nM
[2]; [6]
  EC50: 100 to 500 nM
[3]; [7]
  EC50: < 100 nM
[4]; [8]
  EC50: < 100 nM

## O=C(c1ncco1)N1[C@@H]2CC[C@@H]1CN(c1ncnc3[nH]ccc13)C2 [Example 177, Oxazol-2-yl-[3-(7H-pyrrolo[2,3-d]pyrimidin-4-yl)-3,8-diaza-bicyclo[3.2.1]oct-8-yl]-methanone]
[1]; [5]
  EC50: > 500 nM
[2]; [6]
  EC50: 100 to 500 nM
[3]; [7]
  EC50: 100 to 500 nM
[4]; [8]
  EC50: 100 to 500 nM

## CC1CN(C(=O)CCC#N)C2(CC2)CN1c1ncnc2[nH]ccc12 (centres unmarked) [Example 150, 4-[6-Methyl-7-(7H-pyrrolo[2,3-d]pyrimidin-4-yl)-4,7-diaza-spiro[2.5]oct-4-yl]-4-oxo-butyronitrile]
[1]; [5]
  EC50: > 500 nM
[2]; [6]
  EC50: < 100 nM
[3]; [7]
  EC50: < 100 nM
[4]; [8]
  EC50: < 100 nM
